According to ChEMBL document CHEMBL1149774, “Synthesis of N-(5,7-diamino-3-phenyl-quinoxalin-2-yl)-3,4,5-substituted anilines and N-[4[(5,7-diamino-3-phenylquinoxalin-2-yl)amino]benzoyl]-l-glutamic acid diethyl ester: evaluation of in vitro anti-cancer and anti-folate activities” (Eur J Med Chem, 2008):

Tests used:
Assay type in all cases: functional
LOX IMVI = assay: Growth inhibition of human LOX IMVI cells after 48 hrs by SRB staining method
NCI-H23 = assay: Growth inhibition of human NCI-H23 cells after 48 hrs by SRB staining method; conditions: NCI-H23, 48 h
RPMI-8226 = assay: Growth inhibition of human RPMI8226 cells after 48 hrs by SRB staining method; conditions: RPMI-8226, 48 h
NCI-H322M = assay: Growth inhibition of human NCI-H322M cells after 48 hrs by SRB staining method
PC-3 = assay: Growth inhibition of human PC3 cells after 48 hrs by SRB staining method; conditions: PC-3, 48 h
OVCAR-5 = assay: Growth inhibition of human OVCAR5 cells after 48 hrs by SRB staining method; conditions: OVCAR-5, 48 h
SK-MEL-5 = assay: Growth inhibition of human SK-MEL-5 cells after 48 hrs by SRB staining method; conditions: SK-MEL-5, 48 h
SW-620 = assay: Growth inhibition of human SW620 cells after 48 hrs by SRB staining method; conditions: SW-620, 48 h
SN12C = assay: Growth inhibition of human SN12C cells after 48 hrs by SRB staining method
SK-MEL-28 = assay: Growth inhibition of human SK-MEL-28 cells after 48 hrs by SRB staining method; conditions: SK-MEL-28, 48 h
HOP-62 = assay: Growth inhibition of human HOP62 cells after 48 hrs by SRB staining method; conditions: HOP-62, 48 h
BT-549 = assay: Growth inhibition of human BT549 cells after 48 hrs by SRB staining method; conditions: BT-549, 48 h
NCI-H522 = assay: Growth inhibition of human NCI-H522 cells after 48 hrs by SRB staining method; conditions: NCI-H522, 48 h
OVCAR-8 = assay: Growth inhibition of human OVCAR8 cells after 48 hrs by SRB staining method; conditions: OVCAR-8, 48 h
A549 = assay: Growth inhibition of human A549 cells after 48 hrs by SRB staining method; conditions: A549, 48 h
MDA-MB-231 = assay: Growth inhibition of human MDA-MB-231 cells after 48 hrs by SRB staining method; conditions: MDA-MB-231, 48 h
786-0 = assay: Growth inhibition of human 786-0 cells after 48 hrs by SRB staining method; conditions: 786-0, 48 h
MCF7 = assay: Growth inhibition of human MCF7 cells after 48 hrs by SRB staining method; conditions: MCF7, 48 h
SK-MEL-2 = assay: Growth inhibition of human SK-MEL-2 cells after 48 hrs by SRB staining method; conditions: SK-MEL-2, 48 h
HCT-15 = assay: Growth inhibition of human HCT15 cells after 48 hrs by SRB staining method; conditions: HCT-15, 48 h
NCI-H460 = assay: Growth inhibition of human NCI-H460 cells after 48 hrs by SRB staining method; conditions: NCI-H460, 48 h
SR = assay: Growth inhibition of human SR cells after 48 hrs by SRB staining method
OVCAR-3 = assay: Growth inhibition of human OVCAR-3 cells after 48 hrs by SRB staining method; conditions: OVCAR-3, 48 h
OVCAR-4 = assay: Growth inhibition of human OVCAR4 cells after 48 hrs by SRB staining method; conditions: OVCAR-4, 48 h
KM12 = assay: Growth inhibition of human KM12 cells after 48 hrs by SRB staining method; conditions: KM12, 48 h
UO-31 = assay: Growth inhibition of human UO31 cells after 48 hrs by SRB staining method; conditions: UO-31, 48 h
SF-295 = assay: Growth inhibition of human SF295 cells after 48 hrs by SRB staining method; conditions: SF-295, 48 h
EKVX = assay: Growth inhibition of human EKVX cells after 48 hrs by SRB staining method
HCT-116 = assay: Growth inhibition of human HCT116 cells after 48 hrs by SRB staining method; conditions: HCT-116, 48 h
U-251 = assay: Growth inhibition of human U251 cells after 48 hrs by SRB staining method; conditions: U-251, 48 h
A498 = assay: Growth inhibition of human A498 cells after 48 hrs by SRB staining method; conditions: A498, 48 h
SK-OV-3 = assay: Growth inhibition of human SKOV3 cells after 48 hrs by SRB staining method; conditions: SK-OV-3, 48 h
[1] = read-out: pLC50 (the source's name) (converted)

SMILES: Nc1cc(N)c2nc(-c3ccccc3)c(Nc3ccc(F)cc3)nc2c1
- GI50 (LOX IMVI): 4.79 µM
- TGI (LOX IMVI; read-out: pTGI (converted)): 18.2 µM
- GI50 (NCI-H23): 22.4 µM
- TGI (NCI-H23; read-out: pTGI (converted)): 49 µM
- GI50 (RPMI-8226): 4.68 µM
- CC50 (RPMI-8226; [1]): > 100 µM
- TGI (RPMI-8226; read-out: pTGI (converted)): 34.7 µM
- GI50 (NCI-H322M): 17 µM
- TGI (NCI-H322M; read-out: pTGI (converted)): 35.5 µM
- GI50 (PC-3): 11.7 µM
- CC50 (PC-3; [1]): > 100 µM
- TGI (PC-3; read-out: pTGI (converted)): > 100 µM
- GI50 (OVCAR-5): 38 µM
- TGI (OVCAR-5; read-out: pTGI (converted)): > 100 µM
- GI50 (SK-MEL-5): 14.5 µM
- TGI (SK-MEL-5; read-out: pTGI (converted)): 33.1 µM
- GI50 (SW-620): 13.5 µM
- CC50 (SW-620; [1]): > 100 µM
- TGI (SW-620; read-out: pTGI (converted)): 38.9 µM
- GI50 (SN12C): 15.8 µM
- CC50 (SN12C; [1]): 74.1 µM
- TGI (SN12C; read-out: pTGI (converted)): 33.9 µM
- GI50 (SK-MEL-28): 20.4 µM
- CC50 (SK-MEL-28; [1]): 75.9 µM
- TGI (SK-MEL-28; read-out: pTGI (converted)): 38.9 µM
- GI50 (HOP-62): 38 µM
- TGI (HOP-62; read-out: pTGI (converted)): > 100 µM
- GI50 (BT-549): 12 µM
- CC50 (BT-549; [1]): 63.1 µM
- TGI (BT-549; read-out: pTGI (converted)): 26.9 µM
- GI50 (NCI-H522): > 100 µM
- TGI (NCI-H522; read-out: pTGI (converted)): > 100 µM
- GI50 (OVCAR-8): 12.3 µM
- CC50 (OVCAR-8; [1]): 74.1 µM
- TGI (OVCAR-8; read-out: pTGI (converted)): 30.2 µM
- GI50 (A549): 17.4 µM
- CC50 (A549; [1]): > 100 µM
- TGI (A549; read-out: pTGI (converted)): 44.7 µM
- GI50 (MDA-MB-231): 11 µM
- CC50 (MDA-MB-231; [1]): 85.1 µM
- TGI (MDA-MB-231; read-out: pTGI (converted)): 30.2 µM
- GI50 (786-0): 17.4 µM
- CC50 (786-0; [1]): > 100 µM
- TGI (786-0; read-out: pTGI (converted)): 53.7 µM
- GI50 (MCF7): 12.6 µM
- CC50 (MCF7; [1]): > 100 µM
- TGI (MCF7; read-out: pTGI (converted)): > 100 µM
- GI50 (SK-MEL-2): 29.5 µM
- TGI (SK-MEL-2; read-out: pTGI (converted)): > 100 µM
- GI50 (HCT-15): 12.6 µM
- TGI (HCT-15; read-out: pTGI (converted)): 38 µM
- GI50 (NCI-H460): 26.3 µM
- TGI (NCI-H460; read-out: pTGI (converted)): > 100 µM
- GI50 (SR): 5.37 µM
- GI50 (OVCAR-3): 4.68 µM
- TGI (OVCAR-3; read-out: pTGI (converted)): 17.8 µM
- GI50 (OVCAR-4): 13.5 µM
- TGI (OVCAR-4; read-out: pTGI (converted)): 49 µM
- GI50 (KM12): 12 µM
- TGI (KM12; read-out: pTGI (converted)): 29.5 µM
- GI50 (UO-31): 17 µM
- CC50 (UO-31; [1]): > 100 µM
- TGI (UO-31; read-out: pTGI (converted)): 61.7 µM
- GI50 (SF-295): 14.5 µM
- TGI (SF-295; read-out: pTGI (converted)): 32.4 µM
- GI50 (EKVX): 12 µM
- CC50 (EKVX; [1]): 75.9 µM
- TGI (EKVX; read-out: pTGI (converted)): 30.2 µM
- GI50 (HCT-116): 20 µM
- TGI (HCT-116; read-out: pTGI (converted)): > 100 µM
- GI50 (U-251): 5.62 µM
- TGI (U-251; read-out: pTGI (converted)): 20 µM
- GI50 (A498): 17.4 µM
- CC50 (A498; [1]): 66.1 µM
- TGI (A498; read-out: pTGI (converted)): 20 µM
- GI50 (SK-OV-3): 40.7 µM
- CC50 (SK-OV-3; [1]): > 100 µM
- TGI (SK-OV-3; read-out: pTGI (converted)): > 100 µM
